{"source": "patent US8198284B2", "about": "“Treatment of neurodegenerative disorders with thiourea compounds” (National Health Research Institutes, priority 2008, dated 2012)", "type_in_all_cases": "cell-based", "key": {"[1]": {"test_system": "Microglia", "experiment": "Enhancement of microglial Aβ clearance and phagocytosis in vitro", "conditions": "n=6, p<0.001", "procedure": "Compounds were evaluated for their efficacy in enhancing microglial phagocytosis of Aβ (or Aβ clearance). […] Lipopolysaccharide (LPS) at 10 ng/mL was added as a positive control, which is known to increase Aβ uptake. The culture medium was subjected to Western blotting for evaluating residual Aβ left in the medium. The mean values of fluorescent intensity measured by flow cytometer were compared between cells pretreated with the test compound and the ones in non-treated controls."}, "[2]": {"test_system": "iNOS", "experiment": "Anti-inflammatory activity: LPS-induced iNOS expression (Western blotting)", "procedure": "(§1) Compounds were evaluated for their efficacy in suppressing microglial immune activation by measuring their potency against LPS-induced expression of iNOS and COX-2 and IL-6 secretion. Microglia and Raw 264.7 cells (a microglia-like cell line) were pretreated with a test compound at various doses for 1 hr followed by 24 hr treatment of LPS (10 ng/ml). Cell lysates were subjected to Western blotting for iNOS and COX-2 evaluation. IL-6 secretion was measured from resulting culture medium by ELISA."}, "[3]": {"test_system": "Hippocampal organotypic cultures", "experiment": "Neuro-protection against LPS toxicity in hippocampal organotypic cultures", "conditions": "pre-treatment, then LPS 10 ng/mL for 24 hr; Western blotting", "procedure": "Compounds were evaluated for their efficacy in suppressing microglia-mediated neurotoxicity. Hippocampal organotypic cultures were established to serve as an ex vivo model for evaluation of hippocampal functions. Pre-treatment of the cultures with a test compound was followed by addition of LPS (10 ng/mL) for 24 hr. Hippocampal tissues were harvested and subjected to Western blotting for measuring synaptophysin and post synaptic density protein (PSD)95 levels, the indications for neuronal synatic functions."}, "[4]": {"test_system": "COX-2", "experiment": "Anti-inflammatory activity: LPS-induced COX-2 expression (Western blotting)", "procedure": "as §1"}, "[5]": {"test_system": "IL-6", "experiment": "Anti-inflammatory activity: LPS-induced IL-6 secretion (ELISA)", "procedure": "as §1"}, "[6]": {"conditions": "dose dependent, β-actin unchanged"}}, "data": [{"compound": "NC(=S)Nc1cccc(OCCCCCNC(=S)Nc2cccc3ccccc23)c1", "note": "[Compound 1, 1-naphthalen-1-yl-3-[5-(3-thioureido-phenoxy)-pentyl]-thiourea]", "values": [{"measurement": "increase of Aβ uptake as compared to the controls", "setting": "[1]; compound at 10 μM", "result": "approximately 29%"}, {"measurement": "increase of Aβ uptake as compared to the controls", "setting": "[1]; compound at 20 μM", "result": "~44", "unit": "%"}, {"measurement": "increase of Aβ uptake as compared to the controls", "setting": "[1]; compound at 50 μM", "result": "~128", "unit": "%"}, {"measurement": "IC50", "setting": "[2]; Mus musculus, RAW264.7, 1 hr pretreatment, then LPS 10 ng/ml for 24 hr, microglia and Raw 264.7 cells, read-out: Effective dose to show at least 50% suppression (IC50) for iNOS", "result": 1, "unit": "µM"}, {"measurement": "LPS-induced iNOS expression", "setting": "[2]; [6]", "result": "significant suppression"}, {"measurement": "LPS-induced reduction of PSD95 level", "setting": "[3]", "result": "prevented LPS-induced reduction"}, {"measurement": "LPS-induced reduction of synaptophysin level", "setting": "[3]", "result": "prevented LPS-induced reduction"}, {"measurement": "IC50", "setting": "[4]; Mus musculus, RAW264.7, 1 hr pretreatment, then LPS 10 ng/ml for 24 hr, microglia and Raw 264.7 cells, read-out: Effective dose to show at least 50% suppression (IC50) for COX-2", "result": 50, "unit": "µM"}, {"measurement": "LPS-induced COX-2 expression", "setting": "[4]; [6]", "result": "significant suppression"}, {"measurement": "IC50", "setting": "[5]; 1 hr pretreatment, then LPS 10 ng/ml for 24 hr, secretion by microglia, read-out: Effective dose to show at least 50% suppression (IC50) for IL-6", "result": 20, "unit": "µM"}, {"measurement": "LPS-induced IL-6 secretion by microglia", "setting": "[5]; dose dependent", "result": "inhibited"}]}]}
